These results are taken from patent US20140271885A1, “COPOLYMERS FOR STABLE MICELLE FORMULATIONS” (Intezyne Technologies, Inc., priority 2013, published 2014).

For this series the following is noted: rat, in vivo, iv, 10 mg/kg. On the procedure:
The delivery vehicle for drug administration was isotonic saline. Rat blood was collected from the catheter into K2-EDTA tubes […] at time points of 1, minute, 5 minutes, 15 minutes, 1 hour, 4 hours, 8 hours and 24 hours. Plasma was isolated by centrifugation at 1000 RPM for 5 minutes, and 150 uL of extraction solution (ice cold methanol/100 ng/mL daunorubicin internal standard) was added to 50 uL of each plasma sample. Samples were then vortexed for 10 minutes, centrifuged at 13,000 RPM for 10 minutes, and 150 uL of the supernatant is transferred to HPLC vials for analysis. […] A 5 μL sample injection was made onto a Waters 4 μm Nova Pak C18 (3.9×150 mm) at 30° C. with a flow rate of 0.750 mL per minute of 10 mM phosphate buffer (pH=1.4), methanol and acetonitrile (gradient from 70/10/20 to 40/10/50 for buffer/methanol/acetonitrile was made over eight minutes).

Each structure is given as a SMILES string.

Turning to `COc1cccc2c1C(=O)c1c(O)c3c(c(O)c1C2=O)C[C@@](O)(C(C)=O)C[C@@H]3O[C@H]1C[C@H](N)[C@H](O)[C@H](C)O1` [Free Daunorubicin, daunorubicin], the “AUC (area under the concentration versus time curve, exposure of daunorubicin to the plasma compartment)” value came out at 1300 ng·h/mL and the “Half-life (terminal, elimination)” value is listed as 3.3 h.
